This experiment deals with CEM cells HIV-1 protection, formazan growth assay. Description: NCI AIDS Antiviral Assay. To be noted: for IC50: measured here: growth of uninfected CEM cells. The gist of the method: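 Steps: treat uninfected and HIV-1-infected human CEM cells at five drug levels; quantify growth by soluble formazan; retest any compound reaching 50% protection; classify actives from the retest.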

Active and inactive are the calls of the source.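 Rule for the calls: active = compounds giving half or more protection of infected cells from virus-caused growth loss, again on retest; inactive = the rest.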

The EC50 is the concentration that produces a half-maximal response. What is called IC50 is the midpoint of a concentration-inhibition curve. Read a high IC50 as weaker potency in that assay. Take `O=C(/C=C/c1ccc(Cl)c(Cl)c1)C1CCC(Cl)CC1` (configuration not stated): the EC50 is > 6.31 µM and the IC50 was > 6.31 µM.

Consider `CN1c2ccccc2N(C(=O)c2ccc([N+](=O)[O-])cc2)C(CC(=O)O)c2cccn21` (configuration not stated), for which the EC50 was > 617 µM and the IC50 is 240 µM.

Turning to `CCOC(=O)C/C(N)=C(\C#N)C(=O)OCC`, the result was inactive.

On to `ClC1(Cl)C2CCOC21n1cnc2ccccc21` (configuration not stated), for which the EC50 is > 200 µM and the IC50 came out at 102 µM.

Turning to `O=C1CC[C@@H](S(=O)(=O)c2ccccc2)[C@H](/C=C/c2ccccc2)O1`, the result was inactive.

Turning to `CCOC(=O)C(=O)N=Nc1c(O)[nH]c2ccccc12`, the EC50 is > 200 µM and the IC50 was > 200 µM.

For `NC(N)=NS(=O)(=O)c1ccc(NNc2c3ccccc3nc3c(C(=O)Nc4ccc(S(N)(=O)=O)cc4)cccc23)cc1`, the EC50 was > 200 µM and the IC50 was determined as 10.2 µM.

For `O=C1NC(N2CCCCC2)=N/C1=C\c1ccccc1O`, the EC50 was > 200 µM and the IC50 was found to be 174 µM.

On to `OCc1cc2c(cc1CO)OCC2`, for which the outcome was inactive.

With `CSc1nc(NC2OCC(OC(C)=O)C(OC(C)=O)C2OC(C)=O)c2c(n1)OCC2=O` (configuration not stated), the outcome was inactive.

Regarding `O=C(CI)Nc1ccc2oc(=O)c(C(=O)O)cc2c1`, the EC50 is > 214 µM and the IC50 came out at 23.4 µM.

As for `CCc1cc(=O)n(/C(C)=C/c2ccccc2)n1C`, the EC50 was > 200 µM and the IC50 is > 200 µM.

Consider `CCOC(=O)O/C(=C\c1ccc(OC)cc1)c1c(OC(=O)OCC)n(C(=O)OCC)c2ccccc12`, for which the EC50 is > 200 µM and the IC50 turned out to be 6.61 µM.

As to `CC(C)N1CNC(=O)C12CCN(CC1COc3ccccc3O1)CC2` (configuration not stated), the EC50 is > 200 µM and the IC50 was > 200 µM.

In the case of `O=C1/C=C/C(=O)OCCCC(=O)/C=C/C(=O)OCCC1`, the outcome was inactive.

Turning to `N#Cc1c(O)c(C=Nc2ccc(Cl)cc2)c(=O)n2c1[nH]c1ccccc12`, the EC50 was > 100 µM and the IC50 was > 100 µM.

For the compound `O=P(O)(O)CN1CCNCCN(CP(=O)(O)O)CC1`, the EC50 was > 100 µM and the IC50 is 70.8 µM.

`O=[N+]([O-])c1cccc2c([As](=O)(O)O)cccc12`: the EC50 is > 200 µM and the IC50 was found to be 91.2 µM.

As to `CC(C)(C)OC(=O)NC(Cc1ccccc1)C(=O)OCN1C(=O)C2C3C=CC(C2C1=O)C1C2C(=O)N(COC(=O)C(Cc4ccccc4)NC(=O)OC(C)(C)C)C(=O)C2C31` (configuration not stated), the EC50 was > 100 µM and the IC50 is 15.5 µM.

`CNC(=O)OCC1=CC(=O)C=C(OC)C1=O`: the EC50 is > 550 µM and the IC50 is 11 µM.

Regarding `O=C(Nc1ccc(Cl)cc1Cl)c1c/c(=N\O)c2ccc(O)cc2o1`, the result was inactive.

Turning to `NC(=O)OCC(COc1ccc(Cl)cc1)OC(=O)c1cc([N+](=O)[O-])cc([N+](=O)[O-])c1` (configuration not stated), the EC50 was > 562 µM and the IC50 was found to be 398 µM.

`O=[N+]([O-])c1ccccc1N=Cc1ccccc1O`: the EC50 was > 200 µM and the IC50 was > 200 µM.

For `COc1cccc(/C=C(/C(C)=O)C(=O)c2ccccc2)c1`, the result was inactive.

Turning to `CC(C)CC(NC(=O)C(Cc1ccccc1)NC(=O)CNC(=O)CNC(=O)C(N)Cc1ccc(O)cc1)C(=O)NC1C(O)OC(CO)C(O)C1O` (configuration not stated), the EC50 was > 2190 µM and the IC50 is > 2190 µM.

On to `O=[N+]([O-])C(Cl)C(Cl)C(Cl)=C(Cl)Cl` (configuration not stated), for which the EC50 was > 200 µM and the IC50 is > 200 µM.

On to `O=C(O)/C=C/C=C/c1ccccc1`, for which the EC50 was > 200 µM and the IC50 is > 200 µM.

In the case of `Oc1cc(Cl)cc2cccnc12`, the outcome was inactive.

Turning to `O=C1CCCC2=C1CC1=C(CCCC1=O)N2c1ccc(Cl)cc1`, the EC50 is > 200 µM and the concentration for half-maximal inhibition (IC50) stood at 105 µM.

Consider `Cc1ccc(C)n1-c1ccccc1C1C=CN(C(=O)OC(C)(C)C)C=C1`, for which the EC50 is > 200 µM and the IC50 came to 30.2 µM.

The values above are taken from PubChem BioAssay AID179 (DTP/NCI, 2004).
